# Laboratory results as given in ChEMBL document CHEMBL4184182, “Studies on interactions of carbazole derivatives with DNA, cell image, and cytotoxicity” (Bioorg Med Chem, 2018).
# The source made the active and inactive calls. The calls are words filed in the database; no cut-off is given here.
# Legend:
# Quadruplex DNA [1] = assay: Binding affinity to c-Myc G-quadruplex DNA (unknown origin) assessed as enhanced fluorescence time at 5 uM after 5 mins by fluorescence titration assay relative to control; type: nucleic-acid assay
# Quadruplex DNA [2] = assay: Binding affinity to c-Kit G-quadruplex DNA (unknown origin) assessed as stoichiometric ratio of compound to G-quadruplex DNA after 5 mins by Job plot analysis; type: nucleic-acid assay
# dsDNA [3] = assay: Binding affinity to 26-mer duplex DNA (unknown origin) assessed as enhanced fluorescence ratio at 5 uM after 5 mins in presence of sodium ion by fluorescence titration assay relative to control; type: nucleic-acid assay
# Quadruplex DNA [4] = assay: Induction of conformational changes in Bcl2 G-quadruplex DNA (unknown origin) at 15 uM after 5 mins by CD spectral analysis; type: nucleic-acid assay
# Quadruplex DNA [5] = assay: Induction of conformational changes in c-Kit G-quadruplex DNA (unknown origin) at 15 uM after 5 mins by CD spectral analysis; type: nucleic-acid assay
# dsDNA [6] = assay: Binding affinity to 26-mer duplex DNA (unknown origin) after 5 mins by UV-Visible absorbance titration method; type: nucleic-acid assay
# [7] = Drug uptake in RNase-A treated human HepG2 cell nucleus at 10 uM after 2.5 hrs by confocal microscopic method; type: ADME, subcellular; conditions: hepg2, 2.5 h
# Quadruplex DNA [8] = assay: Binding affinity to Bcl2 G-quadruplex DNA (unknown origin) assessed as emission maximum at 5 uM after 5 mins by fluorescence titration method (reference value: 559 nanometer); type: nucleic-acid assay
# [9] = Selectivity ratio of DC50 for 26-mer duplex DNA (unknown origin) to DC50 for Bcl2 G-quadruplex DNA (unknown origin)
# Quadruplex DNA [10] = assay: Binding affinity to human telomeric G-quadruplex DNA assessed as enhanced fluorescence ratio at 5 uM after 5 mins in presence of potassium ion by fluorescence titration assay relative to control; type: nucleic-acid assay
# Quadruplex DNA [11] = assay: Induction of conformational changes in human telomeric G-quadruplex DNA at 15 uM after 5 mins in presence of sodium ion by CD spectral analysis; type: nucleic-acid assay
# Quadruplex DNA [12] = assay: Binding affinity to c-Myc G-quadruplex DNA (unknown origin) assessed as stoichiometric ratio of compound to G-quadruplex DNA after 5 mins by Job plot analysis; type: nucleic-acid assay
# [13] = Selectivity ratio of Kb for c-Myc G-quadruplex DNA (unknown origin) to Kb for calf thymus DNA
# Calf thymus DNA = assay: Binding affinity to calf thymus DNA after 5 mins by UV-Visible absorbance titration method; type: nucleic-acid assay; conditions: Bos taurus
# Quadruplex DNA [14] = assay: Binding affinity to human telomeric G-quadruplex DNA assessed as stoichiometric ratio of compound to G-quadruplex DNA after 5 mins in presence of sodium ion by Job plot analysis; type: nucleic-acid assay
# [15] = Selectivity ratio of DC50 for 26-mer duplex DNA (unknown origin) to DC50 for c-Myc G-quadruplex DNA (unknown origin)
# dsDNA [16] = assay: Binding affinity to 26-mer duplex DNA (unknown origin) assessed as red shift at 15 uM after 5 mins by UV-Visible absorbance titration method; type: nucleic-acid assay
# Quadruplex DNA [17] = assay: Induction of conformational changes in human telomeric G-quadruplex DNA at 15 uM after 5 mins in presence of potassium ion by CD spectral analysis; type: nucleic-acid assay
# Quadruplex DNA [18] = assay: Binding affinity to c-Kit G-quadruplex DNA (unknown origin) after 5 mins by UV-Visible absorbance titration method; type: nucleic-acid assay
# Quadruplex DNA [19] = assay: Binding affinity to Bcl2 G-quadruplex DNA (unknown origin) assessed as stoichiometric ratio of compound to G-quadruplex DNA after 5 mins by Job plot analysis; type: nucleic-acid assay
# Quadruplex DNA [20] = assay: Displacement of thiazole orange from human telomeric G-quadruplex DNA after 5 mins in presence of potassium ion by fluorescence spectral analysis; type: nucleic-acid assay
# [21] = Selectivity ratio of DC50 for 26-mer duplex DNA (unknown origin) to DC50 for c-Kit G-quadruplex DNA (unknown origin)
# [22] = Selectivity ratio of Kb for human telomeric G-quadruplex DNA in presence of sodium ion to Kb for calf thymus DNA
# Quadruplex DNA [23] = assay: Binding affinity to human telomeric G-quadruplex DNA after 5 mins in presence of sodium ion by UV-Visible absorbance titration method; type: nucleic-acid assay
# [24] = Selectivity ratio of Kb for c-Kit G-quadruplex DNA (unknown origin) to Kb for calf thymus DNA
# Quadruplex DNA [25] = assay: Displacement of thiazole orange from human telomeric G-quadruplex DNA after 5 mins in presence of sodium ion by fluorescence spectral analysis; type: nucleic-acid assay
# Quadruplex DNA [26] = assay: Displacement of thiazole orange from c-Myc G-quadruplex DNA (unknown origin) after 5 mins by fluorescence spectral analysis; type: nucleic-acid assay
# Quadruplex DNA [27] = assay: Displacement of thiazole orange from c-Kit G-quadruplex DNA (unknown origin) after 5 mins by fluorescence spectral analysis; type: nucleic-acid assay
# [28] = Selectivity ratio of Kb for human telomeric G-quadruplex DNA in presence of potassium ion to Kb for calf thymus DNA
# Quadruplex DNA [29] = assay: Displacement of thiazole orange from Bcl2 G-quadruplex DNA (unknown origin) after 5 mins by fluorescence spectral analysis; type: nucleic-acid assay
# Quadruplex DNA [30] = assay: Binding affinity to human telomeric G-quadruplex DNA after 5 mins in presence of potassium ion by UV-Visible absorbance titration method; type: nucleic-acid assay
# dsDNA [31] = assay: Displacement of thiazole orange from 26-mer duplex DNA (unknown origin) after 5 mins by fluorescence spectral analysis; type: nucleic-acid assay
# HepG2 = assay: Antiproliferative activity against human HepG2 cells after 72 hrs by MTT assay; type: functional, cell-based; conditions: for IC50: HepG2, 72 h
# [32] = Selectivity ratio of DC50 for 26-mer duplex DNA (unknown origin) to DC50 for human telomeric G-quadruplex DNA in presence of potassium ion
# [33] = Selectivity ratio of Kb for Bcl2 G-quadruplex DNA (unknown origin) to Kb for calf thymus DNA
# Quadruplex DNA [34] = assay: Binding affinity to Bcl2 G-quadruplex DNA (unknown origin) assessed as hyperchromicity at 15 uM after 5 mins by UV-Visible absorbance titration method; type: nucleic-acid assay
# Quadruplex DNA [35] = assay: Binding affinity to human telomeric G-quadruplex DNA assessed as stoichiometric ratio of compound to G-quadruplex DNA after 5 mins in presence of potassium ion by Job plot analysis; type: nucleic-acid assay
# Quadruplex DNA [36] = assay: Binding affinity to c-Myc G-quadruplex DNA (unknown origin) after 5 mins by UV-Visible absorbance titration method; type: nucleic-acid assay
# Quadruplex DNA [37] = assay: Binding affinity to Bcl2 G-quadruplex DNA (unknown origin) after 5 mins by UV-Visible absorbance titration method; type: nucleic-acid assay
# Quadruplex DNA [38] = assay: Induction of conformational changes in c-Myc G-quadruplex DNA (unknown origin) at 15 uM after 5 mins by CD spectral analysis; type: nucleic-acid assay
# Quadruplex DNA [39] = assay: Binding affinity to Bcl2 G-quadruplex DNA (unknown origin) assessed as red shift at 10 uM after 5 mins by UV-Visible absorbance titration method; type: nucleic-acid assay
# dsDNA [40] = assay: Binding affinity to 26-mer duplex DNA (unknown origin) assessed as red shift at 10 uM after 5 mins by UV-Visible absorbance titration method; type: nucleic-acid assay
# Quadruplex DNA [41] = assay: Binding affinity to Bcl2 G-quadruplex DNA (unknown origin) assessed as compound fluorescence life time at 5 uM after 5 mins by fluorescence titration method (reference value: 0.192 nanoseconds); type: nucleic-acid assay
# dsDNA [42] = assay: Binding affinity to 26-mer duplex DNA (unknown origin) assessed as absorption maximum at 5 uM after 5 mins by fluorescence titration method (reference value: 453 nanometer); type: nucleic-acid assay
smiles,measurement,setting,value
CCn1c2ccccc2c2cc(/C=C(\C#N)c3ccc[n+](C)c3)ccc21.[I-],fold change (FC),Quadruplex DNA [1],11.2 to 20.6
same,Ratio,Quadruplex DNA [2],2
same,Ratio,dsDNA [3],> 6
same,Activity,Quadruplex DNA [4],inactive
same,Activity,Quadruplex DNA [5],inactive
same,Kb,dsDNA [6],2.28 ×10⁴ /M
same,Drug uptake,[7],Active
same,Activity,Quadruplex DNA [8],541 nm
same,Selectivity ratio,[9],1.42
same,Ratio,Quadruplex DNA [10],> 6
same,Activity,Quadruplex DNA [11],inactive
same,Ratio,Quadruplex DNA [12],2.1
same,Selectivity ratio,[13],12
same,Kb,Calf thymus DNA,1 ×10⁴ /M
same,Ratio,Quadruplex DNA [14],1.9
same,Selectivity ratio,[15],2.55
same,Activity,dsDNA [16],17 nm
same,Activity,Quadruplex DNA [17],inactive
same,Kb,Quadruplex DNA [18],10.7 ×10⁴ /M
same,Ratio,Quadruplex DNA [19],1.6
same,DC50,Quadruplex DNA [20],6.64 µM
same,Selectivity ratio,[21],2.17
same,Selectivity ratio,[22],4.3
same,Kb,Quadruplex DNA [23],6.95 ×10⁴ /M
same,Selectivity ratio,[24],6.7
same,DC50,Quadruplex DNA [25],9.85 µM
same,DC50,Quadruplex DNA [26],5.15 µM
same,DC50,Quadruplex DNA [27],6.03 µM
same,Selectivity ratio,[28],7.4
same,DC50,Quadruplex DNA [29],9.25 µM
same,Kb,Quadruplex DNA [30],11.9 ×10⁴ /M
same,DC50,dsDNA [31],13.1 µM
same,Activity,HepG2,Dose-dependent effect
same,IC50,HepG2,9.8 µM
same,Selectivity ratio,[32],1.98
same,Selectivity ratio,[33],6.2
same,Activity,Quadruplex DNA [34],42.7%
same,Ratio,Quadruplex DNA [35],2.2
same,Kb,Quadruplex DNA [36],19.2 ×10⁴ /M
same,Kb,Quadruplex DNA [37],9.99 ×10⁴ /M
same,Activity,Quadruplex DNA [38],inactive
CCn1c2ccccc2c2cc(/C=C/c3sc4ccccc4[n+]3CC)ccc21.[I-],Activity,Quadruplex DNA [39],47 nm
same,Ratio,Quadruplex DNA [2],1.9
same,Activity,Quadruplex DNA [4],inactive
same,Activity,Quadruplex DNA [5],inactive
same,Kb,dsDNA [6],3.97 ×10⁴ /M
same,Selectivity ratio,[9],5.17
same,Activity,dsDNA [40],17 nm
same,Activity,Quadruplex DNA [11],inactive
same,Ratio,Quadruplex DNA [12],1.9
same,Selectivity ratio,[13],41.6
same,Kb,Calf thymus DNA,1.32 ×10⁴ /M
same,Ratio,Quadruplex DNA [14],1.9
same,Selectivity ratio,[15],4.67
same,Activity,Quadruplex DNA [17],inactive
same,Kb,Quadruplex DNA [18],23.9 ×10⁴ /M
same,Ratio,Quadruplex DNA [19],1.5
same,DC50,Quadruplex DNA [20],1.81 µM
same,Selectivity ratio,[21],2.02
same,Selectivity ratio,[22],6
same,Kb,Quadruplex DNA [23],7.86 ×10⁴ /M
same,Selectivity ratio,[24],18.1
same,DC50,Quadruplex DNA [25],6.08 µM
same,DC50,Quadruplex DNA [26],0.93 µM
same,Time,Quadruplex DNA [41],2.17 nanoseconds
same,DC50,Quadruplex DNA [27],2.15 µM
same,Selectivity ratio,[28],13.9
same,DC50,Quadruplex DNA [29],0.84 µM
same,Kb,Quadruplex DNA [30],18.3 ×10⁴ /M
same,DC50,dsDNA [31],4.34 µM
same,Activity,HepG2,Dose-dependent effect
same,IC50,HepG2,2.7 µM
same,Selectivity ratio,[32],2.4
same,Selectivity ratio,[33],24.2
same,Ratio,Quadruplex DNA [35],2.2
same,Kb,Quadruplex DNA [36],54.9 ×10⁴ /M
same,Activity,dsDNA [42],470 nm
same,Kb,Quadruplex DNA [37],32 ×10⁴ /M
same,Activity,Quadruplex DNA [38],inactive
